Source: PubChem BioAssay (NCI)
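Results reflect a 48-hour exposure of cells in 96-well plates to compound at five concentrations. TGI: total growth inhibition.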

Legend:
Test in all cases: inhibition of tumour cell growth, NCI panel, 48 h
[1] = tested on: NCI-H460 lung
[2] = tested on: M14 melanoma
[3] = tested on: MDA-N
[4] = tested on: T-47D breast
[5] = tested on: OVCAR-8 ovarian
[6] = tested on: HOP-92 NSCLC
[7] = tested on: KM12 colon
[8] = tested on: CCRF-CEM leukemia
[9] = tested on: RPMI-8226 leukemia
[10] = tested on: MDA-MB-435
[11] = tested on: HCT-116 colon
[12] = tested on: SF-539 CNS
[13] = tested on: MCF7 breast
[14] = tested on: SNB-19 CNS
[15] = tested on: SK-MEL-28 melanoma
[16] = tested on: SK-MEL-5 melanoma
[17] = tested on: HCT-15 colon
[18] = tested on: SK-OV-3 ovarian
[19] = tested on: NCI-H226 lung
[20] = tested on: MOLT-4 leukemia
[21] = tested on: COLO 205 colon
[22] = tested on: NCI-H522 lung
[23] = tested on: NCI/ADR-RES ovarian
[24] = tested on: SW-620 colon
[25] = tested on: OVCAR-5 ovarian
[26] = tested on: CAKI-1 renal
[27] = tested on: TK-10 renal
[28] = tested on: A498 renal
[29] = tested on: UACC-62 melanoma
[30] = tested on: PC-3 prostate
[31] = tested on: IGROV1 ovarian
[32] = tested on: SF-268 CNS
[33] = tested on: HS 578T breast
[34] = tested on: SNB-75 CNS
[35] = tested on: DU-145 prostate
[36] = tested on: UO-31 renal
[37] = tested on: UACC-257 melanoma
[38] = tested on: K-562 leukemia
[39] = tested on: SK-MEL-2 melanoma
[40] = tested on: U251 CNS
[41] = tested on: EKVX NSCLC
[42] = tested on: HCC-2998 colon
[43] = tested on: MDA-MB-231 breast
[44] = tested on: SN12C renal
[45] = tested on: 786-0 renal
[46] = tested on: OVCAR-4 ovarian
[47] = tested on: LOX IMVI melanoma
[48] = tested on: HL-60(TB) leukemia
[49] = tested on: SF-295 CNS
[50] = tested on: HT29 colon
[51] = tested on: ACHN renal
[52] = tested on: HOP-62 NSCLC
[53] = tested on: BT-549 breast
[54] = tested on: RXF 393 renal
[55] = tested on: OVCAR-3 ovarian
[56] = tested on: A549 NSCLC
[57] = tested on: SR leukemia
[58] = tested on: NCI-H23 lung
[59] = tested on: MALME-3M melanoma

## CC1=NN(c2nc(N)nc(CCl)n2)C(C)(C)C1
[1]
  TGI: 36.2 µM
[2]
  TGI: > 75.4 µM
[3]
  TGI: > 100 µM
[4]
  TGI: > 100 µM
[5]
  TGI: > 55.5 µM
[6]
  TGI: 45.7 µM
[7]
  TGI: 51.5 µM
[8]
  TGI: > 52.7 µM
[9]
  TGI: > 100 µM
[10]
  TGI: > 100 µM
[11]
  TGI: > 70.1 µM
[12]
  TGI: 34 µM
[13]
  TGI: > 100 µM
[14]
  TGI: > 100 µM
[15]
  TGI: > 75.8 µM
[16]
  TGI: > 56 µM
[17]
  TGI: 55.9 µM
[18]
  TGI: > 100 µM
[19]
  TGI: > 100 µM
[20]
  TGI: 50 µM
[21]
  TGI: > 58 µM
[22]
  TGI: 2.94 µM
[23]
  TGI: 35 µM
[24]
  TGI: > 60.2 µM
[25]
  TGI: > 78 µM
[26]
  TGI: 9.27 µM
[27]
  TGI: > 100 µM
[28]
  TGI: > 84.4 µM
[29]
  TGI: 32.5 µM
[30]
  TGI: > 100 µM
[31]
  TGI: 20.5 µM
[32]
  TGI: 68 µM
[33]
  TGI: > 100 µM
[34]
  TGI: > 75.6 µM
[35]
  TGI: > 100 µM
[36]
  TGI: 19.7 µM
[37]
  TGI: > 100 µM
[38]
  TGI: > 69.5 µM
[39]
  TGI: > 100 µM
[40]
  TGI: > 63.3 µM
[41]
  TGI: 42.1 µM
[42]
  TGI: 66.1 µM
[43]
  TGI: 85.7 µM
[44]
  TGI: > 68.7 µM
[45]
  TGI: 15.9 µM
[46]
  TGI: 27 µM
[47]
  TGI: 3.35 µM
[48]
  TGI: > 24.9 µM
[49]
  TGI: > 74.5 µM
[50]
  TGI: > 92.7 µM
[51]
  TGI: 31 µM
[52]
  TGI: 19.1 µM
[53]
  TGI: > 82.5 µM
[54]
  TGI: > 100 µM
[55]
  TGI: > 51.8 µM
[56]
  TGI: > 100 µM
[57]
  TGI: > 69.7 µM
[58]
  TGI: 28.6 µM

## CC(C)(C(=O)N(C(=O)N1CCN(c2ccccc2)CC1)S(=O)(=O)c1ccccc1)c1ccc(Cl)cc1
[59]
  TGI: > 100 µM
[1]
  TGI: > 100 µM
[2]
  TGI: > 100 µM
[3]
  TGI: > 100 µM
[4]
  TGI: > 100 µM
[5]
  TGI: > 100 µM
[6]
  TGI: 53.6 µM
[7]
  TGI: > 100 µM
[8]
  TGI: > 100 µM
[9]
  TGI: > 100 µM
[10]
  TGI: > 100 µM
[11]
  TGI: > 100 µM
[12]
  TGI: > 100 µM
[13]
  TGI: > 100 µM
[14]
  TGI: > 100 µM
[15]
  TGI: > 100 µM
[16]
  TGI: > 100 µM
[17]
  TGI: > 100 µM
[18]
  TGI: > 100 µM
[19]
  TGI: > 100 µM
[20]
  TGI: 17.6 µM
[21]
  TGI: 42.7 µM
[22]
  TGI: 26.3 µM
[23]
  TGI: > 100 µM
[24]
  TGI: > 100 µM
[25]
  TGI: > 100 µM
[26]
  TGI: > 100 µM
[27]
  TGI: > 100 µM
[28]
  TGI: 80.8 µM
[29]
  TGI: > 100 µM
[30]
  TGI: 70.3 µM
[32]
  TGI: > 100 µM
[33]
  TGI: > 100 µM
[34]
  TGI: > 100 µM
[35]
  TGI: > 100 µM
[36]
  TGI: 34.3 µM
[37]
  TGI: > 100 µM
[38]
  TGI: > 100 µM
[39]
  TGI: 53.9 µM
[40]
  TGI: > 100 µM
[41]
  TGI: 63.1 µM
[42]
  TGI: > 100 µM
[43]
  TGI: > 100 µM
[44]
  TGI: > 100 µM
[45]
  TGI: > 100 µM
[46]
  TGI: > 100 µM
[47]
  TGI: > 100 µM
[48]
  TGI: > 100 µM
[49]
  TGI: > 100 µM
[50]
  TGI: > 100 µM
[51]
  TGI: > 100 µM
[52]
  TGI: > 100 µM
[53]
  TGI: > 100 µM
[54]
  TGI: > 100 µM
[55]
  TGI: 99.3 µM
[56]
  TGI: > 100 µM
[57]
  TGI: > 100 µM
[58]
  TGI: > 100 µM

## CC(C)(CO)CNc1nc(N)nc(Cl)c1C=O
[59]
  TGI: > 100 µM
[1]
  TGI: > 100 µM
[3]
  TGI: 72.2 µM
[4]
  TGI: > 100 µM
[5]
  TGI: 68.1 µM
[6]
  TGI: 77.3 µM
[7]
  TGI: > 100 µM
[8]
  TGI: 83.9 µM
[9]
  TGI: > 100 µM
[10]
  TGI: 66.5 µM
[11]
  TGI: 40.1 µM
[12]
  TGI: > 100 µM
[13]
  TGI: > 100 µM
[15]
  TGI: 83.8 µM
[16]
  TGI: > 100 µM
[17]
  TGI: 45 µM
[19]
  TGI: > 100 µM
[20]
  TGI: 59 µM
[21]
  TGI: 72.2 µM
[22]
  TGI: 23.5 µM
[23]
  TGI: > 100 µM
[24]
  TGI: > 100 µM
[25]
  TGI: > 100 µM
[26]
  TGI: 52.6 µM
[27]
  TGI: > 100 µM
[28]
  TGI: > 100 µM
[29]
  TGI: 32.6 µM
[30]
  TGI: 41.3 µM
[31]
  TGI: 46.4 µM
[32]
  TGI: 42.2 µM
[33]
  TGI: 70.7 µM
[34]
  TGI: > 100 µM
[35]
  TGI: > 100 µM
[36]
  TGI: > 100 µM
[37]
  TGI: > 100 µM
[38]
  TGI: > 100 µM
[39]
  TGI: 39.2 µM
[40]
  TGI: > 100 µM
[41]
  TGI: > 100 µM
[42]
  TGI: 21.3 µM
[43]
  TGI: > 100 µM
[44]
  TGI: 55.3 µM
[45]
  TGI: > 100 µM
[46]
  TGI: > 100 µM
[47]
  TGI: 33.8 µM
[48]
  TGI: 17.7 µM
[49]
  TGI: > 100 µM
[50]
  TGI: > 100 µM
[51]
  TGI: > 100 µM
[52]
  TGI: 46.1 µM
[53]
  TGI: > 100 µM
[54]
  TGI: 44.9 µM
[55]
  TGI: 62.8 µM
[56]
  TGI: > 100 µM
[57]
  TGI: 66.6 µM
[58]
  TGI: > 100 µM
